For series [1], the system named is mice with DSS-induced colitis. The series can be described thus: DSS-induced colitis efficacy (colon length, body weight, colon damage). Format: in vivo, C57BL/6 mice. How it is done:
To evaluate the anti-inflammatory action of the developed VCAM1-IRAK4 NC, mice were administered with 5% DSS in drinking water for 7 days and injected IV with the VCAM1-targeted nanocarriers loaded with IRAK4 inhibitor (23 mg kg^−1) on day 0, 2, 4, and 6 of DSS treatment initiation (Y. Lec, K. Sugihara, M. G. Gillilland, 3rd, S. Jon, N. Kamada, J. J. Moon, Nat. Mater. 2020, 19, 118). […] A healthy control group without DSS administration and a DSS-induced colitis group without the injection of VCAM1-IRAK4 NC were also prepared. […] Pharmacother. 2022, 153, 113459).
In vivo evaluation of VCAM1-IRAK4 NC in mice with DSS-induced colitis. […] To evaluate the accumulation of VCAM1-targeted nanocarriers in inflamed tissue, the shaved mice with induced colitis were injected IV with SiNc-loaded IRAK4 NC and VCAM1-IRAK4 NC, and NIR fluorescence images of the excised colons and major organs were recorded 24 hours post-administration. The fluorescence images were obtained using a Pearl Impulse fluorescence imaging system (LI-COR, Lincoln, NE) and the mean fluorescence intensity of region of interest was obtained using Pearl Impulse Software (LI-COR, Lincoln, NE). […] Colon length without the cecum was measured, and colon tissues were gently washed with PBS. […] NucBlue™ Fixed Cell ReadyProbes™ Reagent (ThermoFisher Scientific, Waltham, MA, USA) was used to stain the nuclei. […]

The conditions of series [2]: cited from earlier work.

Consider 1 compound from US20250073223A1, “TARGETED NANOCARRIERS FOR SYSTEMIC DELIVERY OF IRAK4 INHIBITORS TO INFLAMED TISSUES” (Oregon State University, priority 2023, published 2025).

`CC[C@@H]1[C@H](F)C(=O)N[C@@H]1COc1nccc2cc(C(N)=O)c(OC)cc12` [PF-06650833, zimlovisertib]: in series [1] (free drug in 60% saline, 30% PEG400, 10% DMSO, 23 mg kg^−1, 4 IV injections, healthy 5.97±0.18, DSS saline 4.87±0.12 (FIG. 15A)), the average colon length stood at 4.74±0.35 cm. Moreover, in series [1] (free drug, 23 mg kg^−1, 4 IV injections every 2 days), the “therapeutic effect on colitis” value is “no noticeable therapeutic effect”. Also, the absolute oral bioavailability entry in series [2] (oral) is “low”. Also, in series [2] (two phase I clinical trials), the dose-limiting side effects entry is given as “no dose-limiting side effects were observed” and the tolerability entry is listed as “well tolerated”.
